The results in this text go back to ChEMBL document CHEMBL4229544, “Design, synthesis and antibacterial properties of pyrimido[4,5-b]indol-8-amine inhibitors of DNA gyrase” (Bioorg Med Chem Lett, 2018).

Assay type in all cases: functional
The subject of assay [1] is Mycobacterium tuberculosis. Put plainly: Antitubercular activity against fluoroquinolone-resistant Mycobacterium tuberculosis H37Rv harboring gyrA D94N mutant.
Assay [2] relates to Mycobacterium tuberculosis. Put plainly: Antitubercular activity against isoniazid-resistant Mycobacterium tuberculosis H37Rv harboring katG Y155 mutant.
The test system of assay [3] is Mycobacterium tuberculosis. Put plainly: Antitubercular activity against rifampicin-resistant Mycobacterium tuberculosis H37Rv harboring RpoB S522L mutant.

The structures appear in SMILES notation. Converted amounts (≈) assume the structure as drawn.

Regarding `CNc1cc(F)cc2c1[nH]c1nc(CNC(=O)c3cocn3)nc(N3CCC(N)C3)c12` (stereo not drawn), the minimum inhibitory concentration (MIC) in assay [1] amounted to 0.014 µg/mL (≈ 0.033 µM); in assay [2] it was 0.013 µg/mL (≈ 0.0306 µM); in assay [3], 0.012 µg/mL (≈ 0.0283 µM).

Turning to `CNc1cc(F)cc2c1[nH]c1nc(CNC(=O)c3cnco3)nc(N3CCC(N)C3)c12` (stereo not drawn), the MIC in assay [1], in assay [2] and in assay [3] was 0.09 µg/mL (≈ 0.212 µM) throughout.

`NNC(=O)c1ccncc1` [ISONIAZID]: the MIC was 0.05 µg/mL (≈ 0.365 µM) in assay [1], more than 27 µg/mL in assay [2] and 0.014 µg/mL (≈ 0.102 µM) in assay [3].

Consider `COc1c(N2C[C@@H]3CCCN[C@@H]3C2)c(F)cc2c(=O)c(C(=O)O)cn(C3CC3)c12` [MOXIFLOXACIN], for which the minimum inhibitory concentration (MIC) turned out to be 3.9 µg/mL (≈ 9.72 µM) in assay [1], 0.04 µg/mL (≈ 0.0996 µM) in assay [2] and 0.04 µg/mL (≈ 0.0996 µM) in assay [3].

For `CO[C@@H]1[C@@H](OC(N)=O)[C@@H](O)[C@H](Oc2ccc3c(O)c(NC(=O)c4ccc(O)c(CC=C(C)C)c4)c(=O)oc3c2C)OC1(C)C` [NOVOBIOCIN], the MIC in assay [1] amounted to 7.35 µg/mL (≈ 12 µM); in assay [2], 6.7 µg/mL (≈ 10.9 µM); in assay [3] it was 13.5 µg/mL (≈ 22 µM).

Turning to `CO[C@H]1/C=C/O[C@@]2(C)Oc3c(C)c(O)c4c(O)c(c(/C=N/N5CCN(C)CC5)c(O)c4c3C2=O)NC(=O)/C(C)=C\C=C\[C@H](C)[C@H](O)[C@@H](C)[C@@H](O)[C@@H](C)[C@H](OC(C)=O)[C@@H]1C` [RIFAMPIN], the MIC in assay [1] came out at 0.019 µg/mL (≈ 0.0231 µM); in assay [2] it was 0.013 µg/mL (≈ 0.0158 µM); in assay [3] it was 3 µg/mL (≈ 3.65 µM).
